Key:
Format in all cases: in vivo
[1] = system: wheat (Triticum aestivum); experiment: Test A postemergence
Outline: (§1)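 Visual injury scores from 0, no effect, to 100, complete control, were assigned versus untreated controls roughly 10 d after treatment in the greenhouse. Test chemicals, formulated with surfactant in a non-phytotoxic solvent, were applied to planted seeds as a preemergence soil spray or postemergence to one- to two-leaf plants 2 to 10 cm tall, in loam–sand soil.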

corn (Zea mays) = experiment: Test A postemergence
Outline: as §1

[2] = system: Galium (catchweed bedstraw, Galium aparine); experiment: Test A postemergence
Outline: as §1

[3] = system: ragweed (common ragweed, Ambrosia elatior); experiment: Test A postemergence
Outline: as §1

[4] = system: ryegrass, Italian (Italian ryegrass, Lolium multiflorum); experiment: Test A postemergence
Outline: as §1

[5] = system: barnyardgrass (Echinochloa crus-galli); experiment: Test A postemergence
Outline: as §1

[6] = system: blackgrass (Alopecurus myosuroides); experiment: Test A postemergence
Outline: as §1

[7] = system: pigweed (Amaranthus retroflexus); experiment: Test A postemergence
Outline: as §1

[8] = system: giant foxtail (Setaria faberii); experiment: Test A postemergence
Outline: as §1

Kochia (Kochia scoparia) [9] = experiment: Test A postemergence
Outline: as §1

[10] = system: ragweed (common ragweed, Ambrosia elatior); experiment: Test A preemergence; details: Preemergence; for Plant response rating, Ragweed: 125 g ai/ha, visual injury after approximately 10 d, 0 to 100 scale where 0 is no effect and 100 is complete control; for Ragweed plant response rating (0 to 100 scale, 0 is no effect, 100 is complete control): 500 g ai/ha, visual injury approx. 10 d
Outline: as §1

[11] = system: ryegrass, Italian (Italian ryegrass, Lolium multiflorum); experiment: Test A preemergence; details: Preemergence; for Plant response rating, Ryegrass, Italian: 125 g ai/ha, visual injury after approximately 10 d, 0 to 100 scale where 0 is no effect and 100 is complete control; for Ryegrass, Italian plant response rating (0 to 100 scale, 0 is no effect, 100 is complete control): 500 g ai/ha, visual injury approx. 10 d
Outline: as §1

[12] = system: barnyardgrass (Echinochloa crus-galli); experiment: Test A preemergence; details: Preemergence; for Plant response rating, Barnyardgrass: 125 g ai/ha, visual injury after approximately 10 d, 0 to 100 scale where 0 is no effect and 100 is complete control; for Barnyardgrass plant response rating (0 to 100 scale, 0 is no effect, 100 is complete control): 500 g ai/ha, visual injury approx. 10 d
Outline: as §1

[13] = system: pigweed (Amaranthus retroflexus); experiment: Test A preemergence; details: Preemergence; for Plant response rating, Pigweed: 125 g ai/ha, visual injury after approximately 10 d, 0 to 100 scale where 0 is no effect and 100 is complete control; for Pigweed plant response rating (0 to 100 scale, 0 is no effect, 100 is complete control): 500 g ai/ha, visual injury approx. 10 d
[14] = system: giant foxtail (Setaria faberii); experiment: Test A preemergence; details: Preemergence; for Plant response rating, Foxtail, Giant: 125 g ai/ha, visual injury after approximately 10 d, 0 to 100 scale where 0 is no effect and 100 is complete control; for Foxtail, Giant plant response rating (0 to 100 scale, 0 is no effect, 100 is complete control): 500 g ai/ha, visual injury approx. 10 d
Outline: as §1

Kochia (Kochia scoparia) [15] = experiment: Test A preemergence; details: Preemergence; for Plant response rating, Kochia: 125 g ai/ha, visual injury after approximately 10 d, 0 to 100 scale where 0 is no effect and 100 is complete control; for Kochia plant response rating (0 to 100 scale, 0 is no effect, 100 is complete control): 500 g ai/ha, visual injury approx. 10 d
Outline: as §1

[16] = system: sedge, umbrella (small-flower umbrella sedge, Cyperus difformis); experiment: Test B flooded paddy test; details: Flood, 250 g ai/ha; 0 to 100 scale where 0 is no effect and 100 is complete control; 13 to 15 d
Outline: (§2)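 Response scored visually against untreated controls, 0 = no effect and 100 = complete control, 13–15 d after treatment in the greenhouse. Compounds added to paddy water held 3 cm above soil surface. Treatment given at 2-leaf stage.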

[17] = system: ducksalad (Heteranthera limosa); experiment: Test B flooded paddy test; details: Flood, 250 g ai/ha; 0 to 100 scale where 0 is no effect and 100 is complete control; 13 to 15 d
Outline: as §2

[18] = system: barnyardgrass (Echinochloa crus-galli); experiment: Test B flooded paddy test; details: Flood, 250 g ai/ha; 0 to 100 scale where 0 is no effect and 100 is complete control; 13 to 15 d
Outline: as §2

rice (Oryra sativa) = experiment: Test B flooded paddy test; details: Flood, 250 g ai/ha; 0 to 100 scale where 0 is no effect and 100 is complete control; 13 to 15 d
Outline: as §2

[19] = 125 g ai/ha, postemergence, visual rating after approx. 10 d, 0 to 100 scale (0 no effect, 100 complete control)
[20] = Postemergence, 500 g ai/ha, 0 to 100 scale where 0 is no effect and 100 is complete control

Compound | Plant response rating, Wheat [1, 19] | Plant response rating, Wheat [1, 20] | Plant response rating, Corn (corn (Zea mays); [19]) | Plant response rating, Corn (corn (Zea mays); [20]) | Plant response rating, Galium [2, 19] | Plant response rating, Galium [2, 20] | Plant response rating, Ragweed [3, 19] | Plant response rating, Ragweed [3, 20] | Plant response rating, Ryegrass, Italian [4, 19] | Plant response rating, Ryegrass, Italian [4, 20] | Plant response rating, Barnyardgrass [5, 19] | Plant response rating, Barnyardgrass [5, 20] | Plant response rating, Blackgrass [6, 19] | Plant response rating, Blackgrass [6, 20] | Plant response rating, Pigweed [7, 19] | Plant response rating, Pigweed [7, 20] | Plant response rating, Foxtail, Giant [8, 19] | Plant response rating, Foxtail, Giant [8, 20] | Plant response rating, Kochia (Kochia (Kochia scoparia) [9]; [19]) | Plant response rating, Kochia (Kochia (Kochia scoparia) [9]; [20]) | other results
CC(C)Oc1cccc(C2CNC(=O)C2C(=O)Nc2ccc(F)c(F)c2F)c1 (stereo not shown) [Compound 554] | 20 | 50 | 40 | 70 | 60 | 60 | 0 | 30 | 40 | 90 | 80 | 90 | 60 | 70 | 0 | 0 | 70 | 80 | 20 | 50 | Plant response rating, Ragweed [10]: 20; Ragweed plant response rating (0 to 100 scale, 0 is no effect, 100 is complete control) [10]: 70; Plant response rating, Ryegrass, Italian [11]: 20; Ryegrass, Italian plant response rating (0 to 100 scale, 0 is no effect, 100 is complete control) [11]: 40; Plant response rating, Barnyardgrass [12]: 90; Barnyardgrass plant response rating (0 to 100 scale, 0 is no effect, 100 is complete control) [12]: 90; Plant response rating, Pigweed [13]: 0; Pigweed plant response rating (0 to 100 scale, 0 is no effect, 100 is complete control) [13]: 30; Plant response rating, Foxtail, Giant [14]: 90; Foxtail, Giant plant response rating (0 to 100 scale, 0 is no effect, 100 is complete control) [14]: 90; Plant response rating, Kochia (Kochia (Kochia scoparia) [15]): 70; Kochia plant response rating (0 to 100 scale, 0 is no effect, 100 is complete control) (Kochia (Kochia scoparia) [15]): 90; Plant response rating, Sedge, Umbrella [16]: 0; Plant response rating, Ducksalad [17]: 100; Plant response rating, Barnyardgrass [18]: 55; Plant response rating, Rice (rice (Oryra sativa)): 25
O=C1NCC(c2cc(C(F)(F)F)cc(C(F)(F)F)c2)C1C(=O)Nc1ccc(F)cc1F (stereo not shown) [Compound 589] | 0 | 50 | 10 | 60 | 0 | 0 | 0 | 0 | 20 | 40 | 60 | 80 | 20 | 40 | 0 | 0 | 80 | 80 | 0 | 0 | Plant response rating, Ragweed [10]: 0; Ragweed plant response rating (0 to 100 scale, 0 is no effect, 100 is complete control) [10]: 0; Plant response rating, Ryegrass, Italian [11]: 0; Ryegrass, Italian plant response rating (0 to 100 scale, 0 is no effect, 100 is complete control) [11]: 40; Plant response rating, Barnyardgrass [12]: 80; Barnyardgrass plant response rating (0 to 100 scale, 0 is no effect, 100 is complete control) [12]: 90; Plant response rating, Pigweed [13]: 0; Pigweed plant response rating (0 to 100 scale, 0 is no effect, 100 is complete control) [13]: 0; Plant response rating, Foxtail, Giant [14]: 80; Foxtail, Giant plant response rating (0 to 100 scale, 0 is no effect, 100 is complete control) [14]: 90; Plant response rating, Kochia (Kochia (Kochia scoparia) [15]): 0; Kochia plant response rating (0 to 100 scale, 0 is no effect, 100 is complete control) (Kochia (Kochia scoparia) [15]): 0; Plant response rating, Sedge, Umbrella [16]: 0; Plant response rating, Ducksalad [17]: 70; Plant response rating, Barnyardgrass [18]: 60; Plant response rating, Rice (rice (Oryra sativa)): 20
O=C1NCC(c2cccc(C(F)(F)F)c2F)C1C(=O)Nc1ccccc1F (stereo not shown) [Compound 590] | 20 | 70 | 50 | 70 | 20 | 30 | 0 | 0 | 30 | 30 | 90 | 90 | 50 | 70 | 0 | 0 | 90 | 90 | 0 | 30 | Plant response rating, Ragweed [10]: 0; Plant response rating, Ryegrass, Italian [11]: 0; Ryegrass, Italian plant response rating (0 to 100 scale, 0 is no effect, 100 is complete control) [11]: 30; Plant response rating, Barnyardgrass [12]: 90; Barnyardgrass plant response rating (0 to 100 scale, 0 is no effect, 100 is complete control) [12]: 90; Plant response rating, Pigweed [13]: 0; Pigweed plant response rating (0 to 100 scale, 0 is no effect, 100 is complete control) [13]: 0; Plant response rating, Foxtail, Giant [14]: 90; Foxtail, Giant plant response rating (0 to 100 scale, 0 is no effect, 100 is complete control) [14]: 90; Plant response rating, Kochia (Kochia (Kochia scoparia) [15]): 0; Kochia plant response rating (0 to 100 scale, 0 is no effect, 100 is complete control) (Kochia (Kochia scoparia) [15]): 20; Plant response rating, Sedge, Umbrella [16]: 0; Plant response rating, Ducksalad [17]: 90; Plant response rating, Barnyardgrass [18]: 60; Plant response rating, Rice (rice (Oryra sativa)): 0
O=C1NCC(c2cc(C(F)(F)F)ccc2F)C1C(=O)Nc1ccccc1F (stereo not shown) [Compound 593] | 0 | 40 | 30 | 70 | 0 | 20 | 0 | 0 | 0 | 30 | 90 | 90 | 50 | 60 | 0 | 0 | 90 | 90 | 0 | 0 | Plant response rating, Ragweed [10]: 0; Ragweed plant response rating (0 to 100 scale, 0 is no effect, 100 is complete control) [10]: 0; Plant response rating, Ryegrass, Italian [11]: 0; Ryegrass, Italian plant response rating (0 to 100 scale, 0 is no effect, 100 is complete control) [11]: 50; Plant response rating, Barnyardgrass [12]: 90; Barnyardgrass plant response rating (0 to 100 scale, 0 is no effect, 100 is complete control) [12]: 90; Pigweed plant response rating (0 to 100 scale, 0 is no effect, 100 is complete control) [13]: 0; Plant response rating, Foxtail, Giant [14]: 90; Foxtail, Giant plant response rating (0 to 100 scale, 0 is no effect, 100 is complete control) [14]: 90; Plant response rating, Kochia (Kochia (Kochia scoparia) [15]): 0; Kochia plant response rating (0 to 100 scale, 0 is no effect, 100 is complete control) (Kochia (Kochia scoparia) [15]): 0; Plant response rating, Sedge, Umbrella [16]: 0; Plant response rating, Ducksalad [17]: 80; Plant response rating, Barnyardgrass [18]: 60; Plant response rating, Rice (rice (Oryra sativa)): 15
C#CCN1CC(c2cccc(C(F)(F)F)c2)C(C(=O)Nc2ccccc2F)C1=O (stereo not shown) [Compound 607] | 0 | 20 | 0 | 0 | 0 | 0 | 0 | 0 | 0 | 0 | 20 | 60 | 0 | 0 | 0 | 0 | 20 | 60 | 0 | 0 | Plant response rating, Ragweed [10]: 0; Ragweed plant response rating (0 to 100 scale, 0 is no effect, 100 is complete control) [10]: 0; Plant response rating, Ryegrass, Italian [11]: 0; Ryegrass, Italian plant response rating (0 to 100 scale, 0 is no effect, 100 is complete control) [11]: 0; Plant response rating, Barnyardgrass [12]: 0; Barnyardgrass plant response rating (0 to 100 scale, 0 is no effect, 100 is complete control) [12]: 30; Plant response rating, Pigweed [13]: 0; Pigweed plant response rating (0 to 100 scale, 0 is no effect, 100 is complete control) [13]: 0; Plant response rating, Foxtail, Giant [14]: 80; Foxtail, Giant plant response rating (0 to 100 scale, 0 is no effect, 100 is complete control) [14]: 90; Plant response rating, Kochia (Kochia (Kochia scoparia) [15]): 0; Kochia plant response rating (0 to 100 scale, 0 is no effect, 100 is complete control) (Kochia (Kochia scoparia) [15]): 0; Plant response rating, Sedge, Umbrella [16]: 0; Plant response rating, Ducksalad [17]: 50; Plant response rating, Barnyardgrass [18]: 0; Plant response rating, Rice (rice (Oryra sativa)): 0
